From ChEMBL document CHEMBL5352424, “Boosting caffeic acid performance as antioxidant and monoamine oxidase B/catechol-O-methyltransferase inhibitor” (Eur J Med Chem, 2022)
Active and inactive are the calls of the source. No cut-off for these calls is given here.

Tests used:
[1] = target: T1, Catechol O-methyltransferase (Rattus norvegicus) (UniProt P22734); assay: Inhibition of S-COMT in rat liver homogenates using adrenaline as substrate and SAM as cofactor at 30 uM preincubated for 20 mins followed by substrate addition and measured after 5 mins relative to control; type: tissue-based; details: time 25.0 min
T1 sequence (whole entry): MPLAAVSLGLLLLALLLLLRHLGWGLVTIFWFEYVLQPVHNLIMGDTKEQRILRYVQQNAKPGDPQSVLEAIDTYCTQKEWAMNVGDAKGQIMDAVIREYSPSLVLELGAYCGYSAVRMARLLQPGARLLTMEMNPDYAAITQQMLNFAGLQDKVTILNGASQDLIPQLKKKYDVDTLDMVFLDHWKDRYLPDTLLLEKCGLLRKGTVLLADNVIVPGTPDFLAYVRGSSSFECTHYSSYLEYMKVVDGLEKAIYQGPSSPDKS

Homo sapiens = organism: Homo sapiens; assay: Selectivity index, ratio of IC50 for human MAO-A to IC50 for human MAO-B
[2] = Antioxidant activity assessed as ORAC-FL index; type: functional
[3] = Oxidation potential of compound at pH 7.3 by differential pulse voltammetry analysis; type: physicochemical
Rattus norvegicus = organism: Rattus norvegicus; assay: Selectivity index, ratio of IC50 for S-COMT in rat liver homogenates to IC50 for MB-COMT in rat brain homogenates; type: tissue-based
SH-SY5Y [4] = assay: Cytotoxicity against retinoic acid and TPA-differentiated human SH-SY5Y cells assessed as reduction in lysosomal activity by measuring neutral red dye uptake at 10 uM incubated for 24 hrs by neutral red dye based assay relative to control; type: toxicity, cell-based; design: scale not given: the % may be the effect or the level left
SH-SY5Y [5] = assay: Cytotoxicity against retinoic acid and TPA-differentiated human SH-SY5Y cells assessed as reduction in lysosomal activity at 50 uM incubated for 24 hrs by neutral red dye based assay; type: toxicity, cell-based
[6] = target: T2, Catechol O-methyltransferase (Rattus norvegicus, UniProt P22734); assay: Inhibition of MB-COMT in rat brain homogenates using adrenaline as substrate and SAM as cofactor preincubated for 20 mins followed by substrate addition and measured after 5 mins; type: tissue-based
T2 sequence (P22734 whole entry): T1 sequence (whole entry)

SH-SY5Y [7] = assay: Cytoprotective activity against t-BHP induced oxidative stress in retinoic acid and TPA-differentiated human SH-SY5Y cells assessed as increase in resorufin fluorescence at 10 uM pretreated for 30 mins followed by t-BHP stimulation and measured after 24 hrs by resazurin dye based analysis; type: functional, cell-based; details: time 24.5 hrs
[8] = target: T2, Catechol O-methyltransferase; assay: Inhibition of MB-COMT in rat liver homogenates using adrenaline as substrate and SAM as cofactor preincubated for 20 mins followed by substrate addition and measured after 5 mins; type: tissue-based
SH-SY5Y [9] = assay: Cytotoxicity against retinoic acid and TPA-differentiated human SH-SY5Y cells assessed as reduction in metabolic activity by measuring resazurin reduction at 10 uM incubated for 24 hrs by resazurin dye based assay relative to control; type: toxicity, cell-based; design: scale not given: the % may be the effect or the level left
[10] = target: T3, Amine oxidase [flavin-containing] A (Homo sapiens, UniProt P21397); assay: Inhibition of human MAO-A using kynuramine as substrate at 10 uM incubated for 30 mins by spectrophotometry analysis relative to control; details: 0.5 h
T3 sequence (P21397 whole entry): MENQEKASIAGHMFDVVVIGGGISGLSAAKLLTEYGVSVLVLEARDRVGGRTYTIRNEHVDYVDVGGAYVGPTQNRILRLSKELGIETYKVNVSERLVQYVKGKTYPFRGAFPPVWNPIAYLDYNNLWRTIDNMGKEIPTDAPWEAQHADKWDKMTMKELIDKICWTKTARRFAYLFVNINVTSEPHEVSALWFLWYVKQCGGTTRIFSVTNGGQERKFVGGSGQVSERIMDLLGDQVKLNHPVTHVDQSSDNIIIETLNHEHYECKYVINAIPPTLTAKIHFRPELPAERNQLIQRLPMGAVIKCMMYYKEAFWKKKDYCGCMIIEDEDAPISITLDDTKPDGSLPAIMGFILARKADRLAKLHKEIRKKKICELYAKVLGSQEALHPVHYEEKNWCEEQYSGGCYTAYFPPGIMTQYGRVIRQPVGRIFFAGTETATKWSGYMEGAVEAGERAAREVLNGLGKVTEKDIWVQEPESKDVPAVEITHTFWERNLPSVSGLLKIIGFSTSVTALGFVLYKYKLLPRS

[11] = target: T4, Amine oxidase [flavin-containing] B (Homo sapiens, UniProt P27338); assay: Inhibition of human MAO-B using kynuramine as substrate incubated for 30 mins by spectrophotometry analysis
T4 sequence (P27338 whole entry): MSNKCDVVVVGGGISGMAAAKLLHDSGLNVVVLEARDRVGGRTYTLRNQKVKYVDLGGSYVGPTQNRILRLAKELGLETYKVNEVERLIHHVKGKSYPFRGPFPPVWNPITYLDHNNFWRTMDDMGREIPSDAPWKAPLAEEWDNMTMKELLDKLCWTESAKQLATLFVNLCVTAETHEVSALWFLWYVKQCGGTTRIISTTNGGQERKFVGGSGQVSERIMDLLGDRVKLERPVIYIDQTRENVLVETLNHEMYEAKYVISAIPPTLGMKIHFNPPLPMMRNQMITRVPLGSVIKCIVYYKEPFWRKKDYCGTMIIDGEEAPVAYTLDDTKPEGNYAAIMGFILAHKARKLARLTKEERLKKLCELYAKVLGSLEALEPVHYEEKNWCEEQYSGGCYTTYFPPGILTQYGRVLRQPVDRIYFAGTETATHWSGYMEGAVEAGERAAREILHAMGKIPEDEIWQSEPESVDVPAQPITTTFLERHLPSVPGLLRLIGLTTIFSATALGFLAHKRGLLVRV

SH-SY5Y [12] = assay: Cytotoxicity against retinoic acid and TPA-differentiated human SH-SY5Y cells assessed as reduction in metabolic activity by measuring reduction in resorufin fluorescence at 10 to 50 uM incubated for 24 hrs by resazurin dye based assay; type: toxicity, cell-based; details: dose 10-50 µM
[13] = target: T4, Amine oxidase [flavin-containing] B; assay: Inhibition of human MAO-B using kynuramine as substrate at 10 uM incubated for 30 mins by spectrophotometry analysis relative to control; details: 0.5 h
SH-SY5Y [14] = assay: Cytotoxicity against retinoic acid and TPA-differentiated human SH-SY5Y cells assessed as increase in intracellular ROS formation by measuring increase in DCF fluorescence at 10 to 50 uM incubated for 24 hrs by DCF fluorescence analysis; type: toxicity, cell-based; details: dose 10-50 µM
[15] = Retention time of compound at pH 2.6 by LC/UV analysis; type: physicochemical; details: buffer
[16] = Chromatographic hydrophobicity index of compound at pH 2.6 by HPLC analysis; type: physicochemical
SH-SY5Y [17] = assay: Cytotoxicity against retinoic acid and TPA-differentiated human SH-SY5Y cells assessed as reduction in lysosomal activity by measuring neutral red dye internalization at 10 to 50 uM incubated for 24 hrs by neutral red dye based assay; type: toxicity, cell-based; details: dose 10-50 µM
[18] = target: T1, Catechol O-methyltransferase (Rattus norvegicus); assay: Inhibition of MB-COMT in rat liver homogenates using adrenaline as substrate and SAM as cofactor at 30 uM preincubated for 20 mins followed by substrate addition and measured after 5 mins relative to control; type: tissue-based; details: time 25.0 min
[19] = target: T1, Catechol O-methyltransferase (Rattus norvegicus); assay: Inhibition of MB-COMT in rat brain homogenates using adrenaline as substrate and SAM as cofactor at 30 uM preincubated for 20 mins followed by substrate addition and measured after 5 mins relative to control; type: tissue-based; details: time 25.0 min
SK-N-SH = assay: Cytotoxicity against human SK-N-SH cells assessed as reduction in calcein fluorescence at 30 to 50 uM by calcein-AM assay; type: toxicity, cell-based; details: dose 30-50 µM
SH-SY5Y [20] = assay: Cytotoxicity against retinoic acid and TPA-differentiated human SH-SY5Y cells upto 50 uM incubated for 24 hrs by neutral red dye based assay; type: toxicity, cell-based
SH-SY5Y [21] = assay: Cytotoxicity against retinoic acid and TPA-differentiated human SH-SY5Y cells upto 50 uM incubated for 24 hrs by resazurin dye based assay; type: toxicity, cell-based

Structure (SMILES) | inhibition [1] | Ratio IC50 (Homo sapiens) | Activity index [2] | Ep [3] | Ratio IC50 (Rattus norvegicus) | Activity (SH-SY5Y [4]) | Activity (SH-SY5Y [5]) | IC50 [6] | Activity (SH-SY5Y [7]) | IC50 [8] | Activity (SH-SY5Y [9]) | inhibition at 10 µM [10] | IC50 [11] | Activity (SH-SY5Y [12]) | inhibition at 10 µM [13] | Activity (SH-SY5Y [17]) | other results
N#C/C(=C\C=C\c1ccc(O)c(O)c1)C(=O)Nc1ccccc1 | < 50% | > 2.2 | 3.5 | 161 mV | > 12 | > 85% | Toxic | 2410 nM | Active | 3740 nM | > 85% | < 50% | 4550 nM | – | – | – | –
N#C/C(=C\C=C\c1ccc(O)c(O)c1)C(=O)NCCc1ccccc1 | < 50% | > 2.3 | 3 | 163 mV | > 24 | > 85% | Toxic | 1270 nM | Active | 4000 nM | – | < 50% | 4380 nM | Non-Toxic | – | – | –
O=C(/C=C/C=C/c1ccc(O)c(O)c1)NCCc1ccccc1 | < 50% | – | 3.3 | 124 mV | > 22 | > 85% | Toxic | 1320 nM | Active | 3640 nM | – | < 50% | – | Non-Toxic | < 50% | – | –
O=C(/C=C/C=C/c1ccc(O)c(O)c1)NCc1ccccc1 | < 50% | – | 4 | 129 mV | > 20 | > 85% | Toxic | 1480 nM | Active | 4270 nM | > 85% | < 50% | – | – | < 50% | – | –
O=C(/C=C/C=C/c1ccc(O)c(O)c1)N1CCCCC1 | < 50% | > 4 | 4.3 | 113 mV | > 18 | > 85% | Toxic | 1650 nM | Active | 3840 nM | > 85% | < 50% | 2500 nM | – | – | – | Activity (SH-SY5Y [14]): Non-Toxic; Retention_time [15]: 10.08 min; CHI [16]: 49.61
O=C(O)/C=C/C=C/c1ccc(O)c(O)c1 [DEMETHYLENATED PIPERIC ACID] | < 50% | – | 5.5 | 129 mV | – | – | – | – | inactive | – | – | < 50% | – | Non-Toxic | < 50% | Non-Toxic | Activity (SH-SY5Y [14]): Non-Toxic; inhibition [18]: < 50%; inhibition [19]: < 50%
C[C@H](NCc1ccc(OCc2cccc(F)c2)cc1)C(N)=O [SAFINAMIDE] | – | – | – | – | – | – | – | – | – | – | – | < 50% | – | – | – | – | –
N#C/C(=C\C=C\c1ccc(O)c(O)c1)C(=O)N1CCCCC1 | < 50% | > 2.3 | 3.5 | 154 mV | > 23 | – | – | 1330 nM | Active | 2690 nM | > 85% | < 50% | 4270 nM | – | – | Non-Toxic | Activity (SK-N-SH): Non-Toxic; Retention_time [15]: 10.5 min; CHI [16]: 56.03
O=C(/C=C/C=C/c1ccc(O)c(O)c1)Nc1ccccc1 | < 50% | – | 4.1 | 114 mV | > 19 | > 85% | Toxic | 1620 nM | Active | 6130 nM | > 85% | < 50% | – | – | < 50% | – | –
N#C/C(=C\C=C\c1ccc(O)c(O)c1)C(=O)O | < 50% | – | 4.9 | 144 mV | – | – | – | – | inactive | – | – | < 50% | – | Non-Toxic | < 50% | Non-Toxic | inhibition [18]: < 50%; inhibition [19]: < 50%
N#C/C(=C\C=C\c1ccc(O)c(O)c1)C(=O)NCc1ccccc1 [LS-104] | < 50% | > 8.7 | 2.8 | 174 mV | – | > 85% | Toxic | – | Active | – | > 85% | < 50% | 1150 nM | – | – | – | inhibition [18]: < 50%; inhibition [19]: < 50%
O=C(O)/C=C/c1ccc(O)c(O)c1 [CAFFEIC ACID] | – | – | 4.8 | 168 mV | – | – | – | – | – | – | – | < 50% | – | Non-Toxic | < 50% | Non-Toxic | –
Cc1ccc(C(=O)c2cc(O)c(O)c([N+](=O)[O-])c2)cc1 [TOLCAPONE] | – | – | – | – | – | – | – | – | – | – | – | – | – | – | – | – | Activity (SK-N-SH): Non-Toxic; Activity (SH-SY5Y [20]): Non-Toxic; Activity (SH-SY5Y [21]): Non-Toxic
